Converted amounts (≈) assume the structure as drawn. The source made the active and inactive calls. The rule behind the calls is not given here.
Columns and labels:
Escherichia coli [1] = assay: Antimicrobial activity against Escherichia coli UB1005 after 24 hrs by twofold serial microbroth dilution assay; details: UB1005, 24 h
Escherichia coli [2] = assay: Antimicrobial activity against Escherichia coli DC2 after 24 hrs by twofold serial microbroth dilution assay; type: functional
Pseudomonas aeruginosa [3] = assay: Antimicrobial activity against Pseudomonas aeruginosa K799 after 24 hrs by twofold serial microbroth dilution assay; type: functional
Pseudomonas aeruginosa [4] = assay: Antimicrobial activity against Pseudomonas aeruginosa Z61 after 24 hrs by twofold serial microbroth dilution assay; type: functional
Bacillus subtilis [5] = assay: Antimicrobial activity against Bacillus subtilis Vernon after 24 hrs by twofold serial microbroth dilution assay; type: functional
Candida albicans [6] = assay: Antimicrobial activity against Candida albicans CAND105 after 48 hrs by twofold serial microbroth dilution assay; type: functional
Candida albicans [7] = assay: Antimicrobial activity against Candida albicans after 48 hrs by twofold serial microbroth dilution assay; type: functional
Yarrowia lipolytica = assay: Antimicrobial activity against Candida lipolytica after 48 hrs by twofold serial microbroth dilution assay; type: functional
Saccharomyces cerevisiae = assay: Antimicrobial activity against Saccharomyces cerevisiae after 48 hrs by twofold serial microbroth dilution assay; type: functional
Nannizzia gypsea = assay: Antimicrobial activity against Microsporum gypseum after 48 hrs by twofold serial microbroth dilution assay; type: functional
Fusarium tricinctum = assay: Antimicrobial activity against Fusarium tricinctum after 48 hrs by twofold serial microbroth dilution assay; type: functional
Aspergillus flavus = assay: Antimicrobial activity against Aspergillus flavus after 48 hrs by twofold serial microbroth dilution assay; type: functional
Aspergillus fumigatus = assay: Antimicrobial activity against Aspergillus fumigatus after 48 hrs by twofold serial microbroth dilution assay; type: functional
Human alphaherpesvirus 1 = assay: Antiviral activity against Herpes simplex virus 1 assessed as effect on virus-induced cytopathic effect at 200 ug/ml after 3 days; type: functional, organism-based
[8] = system: Respiratory syncytial virus; assay: Antiviral activity against Respiratory syncytial virus assessed as effect on virus-induced cytopathic effect at 200 ug/ml after 3 days; type: functional, organism-based
[9] = system: Mycobacterium tuberculosis; assay: Antimicrobial activity against Mycobacterium tuberculosis 107 ATCC 35801 at 100 ug/disk after 4 weeks by disk diffusion method; type: functional, organism-based
Mycobacterium avium = assay: Antimicrobial activity against Mycobacterium avium 724 ATCC 25291 at 100 ug/disk after 2 weeks by disk diffusion method; type: functional, organism-based
Staphylococcus aureus [10] = assay: Antimicrobial activity against Staphylococcus aureus SAP00017 after 24 hrs by twofold serial microbroth dilution assay; type: functional
Staphylococcus aureus [11] = assay: Antimicrobial activity against Staphylococcus aureus RN4220 after 24 hrs by twofold serial microbroth dilution assay; type: functional
Escherichia coli [12] = assay: Antimicrobial activity against Escherichia coli UB1005 at <=800 ug/ml after 24 hrs by twofold serial microbroth dilution assay; type: functional, organism-based
Escherichia coli [13] = assay: Antimicrobial activity against Escherichia coli DC2 at <=800 ug/ml after 24 hrs by twofold serial microbroth dilution assay; type: functional, organism-based
Pseudomonas aeruginosa [14] = assay: Antimicrobial activity against Pseudomonas aeruginosa K799 at <=800 ug/ml after 24 hrs by twofold serial microbroth dilution assay; type: functional, organism-based
Pseudomonas aeruginosa [15] = assay: Antimicrobial activity against Pseudomonas aeruginosa Z61 at <=800 ug/ml after 24 hrs by twofold serial microbroth dilution assay; type: functional, organism-based
Staphylococcus aureus [16] = assay: Antimicrobial activity against Staphylococcus aureus SAP00017 at <=800 ug/ml after 24 hrs by twofold serial microbroth dilution assay; type: functional, organism-based
Staphylococcus aureus [17] = assay: Antimicrobial activity against Staphylococcus aureus RN4220 at <=800 ug/ml after 24 hrs by twofold serial microbroth dilution assay; type: functional, organism-based
Bacillus subtilis [18] = assay: Antimicrobial activity against Bacillus subtilis Vernon at <=800 ug/ml after 24 hrs by twofold serial microbroth dilution assay; type: functional, organism-based
Candida albicans [19] = assay: Antimicrobial activity against Candida albicans CAND105 at <=800 ug/ml after 48 hrs by twofold serial microbroth dilution assay; type: functional, organism-based

Compound	MIC (Escherichia coli [1])	MIC (Escherichia coli [2])	MIC (Pseudomonas aeruginosa [3])	MIC (Pseudomonas aeruginosa [4])	MIC (Bacillus subtilis [5])	MIC (Candida albicans [6])	MIC (Candida albicans [7])	MIC (Yarrowia lipolytica)	MIC (Saccharomyces cerevisiae)	MIC (Nannizzia gypsea)	MIC (Fusarium tricinctum)	MIC (Aspergillus flavus)	MIC (Aspergillus fumigatus)	MIC (Staphylococcus aureus [10])	MIC (Staphylococcus aureus [11]; RN4220, 24 h)	Activity (Escherichia coli [12])	Activity (Escherichia coli [13])	Activity (Pseudomonas aeruginosa [14])	Activity (Pseudomonas aeruginosa [15])	Activity (Staphylococcus aureus [16])	also measured
CC1=C(O)C(=O)c2ccc(C)cc2C1=O	> 800 µg/mL	> 800 µg/mL	> 800 µg/mL	> 800 µg/mL	800 µg/mL (≈ 3960 µM)	80 µg/mL (≈ 396 µM)	50 µg/mL (≈ 247 µM)	25 µg/mL (≈ 124 µM)	> 100 µg/mL	12.5 µg/mL (≈ 61.8 µM)	25 µg/mL (≈ 124 µM)	100 µg/mL (≈ 495 µM)	50 µg/mL (≈ 247 µM)	800 µg/mL (≈ 3960 µM)	400 µg/mL (≈ 1980 µM)	–	–	–	–	–	Activity (Human alphaherpesvirus 1): inactive; Activity [8]: inactive; Activity [9]: inactive; Activity (Mycobacterium avium): inactive
COc1ccc2c(OC(C)=O)cc(OC)c(OC(C)=O)c2c1OC(C)=O	–	–	–	–	–	–	–	–	–	–	–	–	–	–	–	inactive	inactive	inactive	inactive	inactive	Activity (Staphylococcus aureus [17]): inactive; Activity (Bacillus subtilis [18]): inactive; Activity (Candida albicans [19]): inactive
COc1cccc(OC)c1C(=O)N[C@@H]1C(=O)N2[C@@H]1SC(C)(C)[C@@H]2C(=O)O [METHICILLIN]	> 512 µg/mL	< 4 µg/mL	256 µg/mL (≈ 673 µM)	< 4 µg/mL	128 µg/mL (≈ 336 µM)	> 512 µg/mL	–	–	–	–	–	–	–	256 µg/mL (≈ 673 µM)	< 4 µg/mL	–	–	–	–	–	–
Cc1ccc2c(O[C@@H]3O[C@@H](C)[C@H](O)[C@@H](O)[C@H]3O)c(O)c(C)c(O)c2c1	–	–	–	–	–	–	–	–	–	–	–	–	–	–	–	inactive	inactive	inactive	inactive	inactive	Activity (Staphylococcus aureus [17]): inactive; Activity (Bacillus subtilis [18]): inactive; Activity (Candida albicans [19]): inactive
NYSTATIN	–	–	–	–	–	–	10 µg/mL	> 10 µg/mL	10 µg/mL	2.5 µg/mL	5 µg/mL	> 10 µg/mL	5 µg/mL	–	–	–	–	–	–	–	–
COc1ccc2c(O)cc(OC)c(O)c2c1O	–	–	–	–	–	–	–	–	–	–	–	–	–	–	–	inactive	inactive	inactive	inactive	inactive	Activity (Staphylococcus aureus [17]): inactive; Activity (Bacillus subtilis [18]): inactive; Activity (Candida albicans [19]): inactive
CC1=CC(=O)c2ccc(C)c(Cl)c2C1=O	> 800 µg/mL	800 µg/mL (≈ 3630 µM)	> 800 µg/mL	400 µg/mL (≈ 1810 µM)	12.5 µg/mL (≈ 56.6 µM)	50 µg/mL (≈ 227 µM)	100 µg/mL (≈ 453 µM)	50 µg/mL (≈ 227 µM)	100 µg/mL (≈ 453 µM)	3.1 µg/mL (≈ 14 µM)	12.5 µg/mL (≈ 56.6 µM)	25 µg/mL (≈ 113 µM)	25 µg/mL (≈ 113 µM)	25 µg/mL (≈ 113 µM)	200 µg/mL (≈ 906 µM)	–	–	–	–	–	Activity (Human alphaherpesvirus 1): inactive; Activity [8]: inactive; Activity [9]: inactive; Activity (Mycobacterium avium): inactive
GENTAMICIN	–	1 µg/mL	1 µg/mL	0.3 µg/mL	16 µg/mL	> 32 µg/mL	–	–	–	–	–	–	–	> 32 µg/mL	–	–	–	–	–	–	MIC (Staphylococcus aureus [11]): 0.3 µg/mL
CC(=O)Oc1c(C)c(OC(C)=O)c2cc(C)ccc2c1O[C@@H]1O[C@@H](C)[C@H](OC(C)=O)[C@@H](OC(C)=O)[C@H]1OC(C)=O	–	–	–	–	–	–	–	–	–	–	–	–	–	–	–	inactive	inactive	inactive	inactive	inactive	Activity (Staphylococcus aureus [17]): inactive; Activity (Bacillus subtilis [18]): inactive; Activity (Candida albicans [19]): inactive
C[C@@H]1[C@H](O)[C@@H](C)/C=C/C=C/C=C/C=C/C=C/C=C/C=C/[C@H](O[C@@H]2O[C@H](C)[C@@H](O)[C@H](N)[C@@H]2O)C[C@@H]2O[C@](O)(C[C@@H](O)C[C@@H](O)[C@H](O)CC[C@@H](O)C[C@@H](O)CC(=O)O[C@H]1C)C[C@H](O)[C@H]2C(=O)O [AMPHOTERICIN B]	> 5 µg/mL	> 5 µg/mL	> 5 µg/mL	> 5 µg/mL	> 5 µg/mL	0.1 µg/mL (≈ 0.108 µM)	–	–	–	–	–	–	–	> 5 µg/mL	> 5 µg/mL	–	–	–	–	–	–
CC1=CC(=O)c2ccc(C)cc2C1=O [CHIMAPHILIN]	> 800 µg/mL	> 800 µg/mL	> 800 µg/mL	> 800 µg/mL	50 µg/mL (≈ 269 µM)	400 µg/mL (≈ 2150 µM)	50 µg/mL (≈ 269 µM)	50 µg/mL (≈ 269 µM)	50 µg/mL (≈ 269 µM)	6.2 µg/mL (≈ 33.3 µM)	12.5 µg/mL (≈ 67.1 µM)	25 µg/mL (≈ 134 µM)	50 µg/mL (≈ 269 µM)	25 µg/mL (≈ 134 µM)	25 µg/mL (≈ 134 µM)	–	–	–	–	–	Activity (Human alphaherpesvirus 1): inactive; Activity [8]: inactive; Activity [9]: inactive; Activity (Mycobacterium avium): inactive
